# In ChEMBL document CHEMBL5465560, “Selectivity Literature for EUbOPEN Chemogenomic Library” (2024):
# Columns and labels:
# [1] = biological target: T1, Serine/threonine-protein kinase DCLK2 (Homo sapiens) (UniProt Q8N568); experiment: Selectivity interaction (KinomeScan (DiscoverX)) EUB0000666a DCLK2; settings: at 10 µM
# T1 sequence (whole entry): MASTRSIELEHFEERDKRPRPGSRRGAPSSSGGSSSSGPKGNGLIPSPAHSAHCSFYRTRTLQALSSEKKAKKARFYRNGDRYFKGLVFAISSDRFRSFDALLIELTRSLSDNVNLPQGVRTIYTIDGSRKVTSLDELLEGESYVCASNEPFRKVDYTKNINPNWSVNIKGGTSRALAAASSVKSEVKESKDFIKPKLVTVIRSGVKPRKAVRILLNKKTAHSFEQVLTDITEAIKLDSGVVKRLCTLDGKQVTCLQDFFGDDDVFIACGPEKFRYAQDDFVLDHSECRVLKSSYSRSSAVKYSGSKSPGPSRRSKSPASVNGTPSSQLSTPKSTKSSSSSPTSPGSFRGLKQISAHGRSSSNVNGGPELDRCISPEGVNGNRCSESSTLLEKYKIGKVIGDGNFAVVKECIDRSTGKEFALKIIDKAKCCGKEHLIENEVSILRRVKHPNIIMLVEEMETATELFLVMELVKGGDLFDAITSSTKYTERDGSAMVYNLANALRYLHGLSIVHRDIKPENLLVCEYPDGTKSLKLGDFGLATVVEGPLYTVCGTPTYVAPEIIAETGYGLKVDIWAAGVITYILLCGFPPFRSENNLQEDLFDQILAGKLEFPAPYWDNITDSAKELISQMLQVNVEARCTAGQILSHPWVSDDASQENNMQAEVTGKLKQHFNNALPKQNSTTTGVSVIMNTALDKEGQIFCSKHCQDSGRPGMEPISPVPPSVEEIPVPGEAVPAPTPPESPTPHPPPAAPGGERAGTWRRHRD
# [2] = biological target: LIM domain kinase 1 (Homo sapiens) (UniProt P53667); experiment: Selectivity interaction (KinomeScan (DiscoverX)) EUB0000666a LIMK1; settings: at 10 µM
# [3] = biological target: Sodium-dependent serotonin transporter (Homo sapiens, UniProt P31645); experiment: Selectivity interaction (Serotonin transporter site assay, human recombinant ) EUB0000877a SLC6A4
# [4] = biological target: T2, Serine/threonine-protein kinase D2 (Homo sapiens) (UniProt Q9BZL6); experiment: Selectivity interaction (KinomeScan (DiscoverX)) EUB0000092b PRKD2; settings: at 10 µM
# T2 sequence (whole entry): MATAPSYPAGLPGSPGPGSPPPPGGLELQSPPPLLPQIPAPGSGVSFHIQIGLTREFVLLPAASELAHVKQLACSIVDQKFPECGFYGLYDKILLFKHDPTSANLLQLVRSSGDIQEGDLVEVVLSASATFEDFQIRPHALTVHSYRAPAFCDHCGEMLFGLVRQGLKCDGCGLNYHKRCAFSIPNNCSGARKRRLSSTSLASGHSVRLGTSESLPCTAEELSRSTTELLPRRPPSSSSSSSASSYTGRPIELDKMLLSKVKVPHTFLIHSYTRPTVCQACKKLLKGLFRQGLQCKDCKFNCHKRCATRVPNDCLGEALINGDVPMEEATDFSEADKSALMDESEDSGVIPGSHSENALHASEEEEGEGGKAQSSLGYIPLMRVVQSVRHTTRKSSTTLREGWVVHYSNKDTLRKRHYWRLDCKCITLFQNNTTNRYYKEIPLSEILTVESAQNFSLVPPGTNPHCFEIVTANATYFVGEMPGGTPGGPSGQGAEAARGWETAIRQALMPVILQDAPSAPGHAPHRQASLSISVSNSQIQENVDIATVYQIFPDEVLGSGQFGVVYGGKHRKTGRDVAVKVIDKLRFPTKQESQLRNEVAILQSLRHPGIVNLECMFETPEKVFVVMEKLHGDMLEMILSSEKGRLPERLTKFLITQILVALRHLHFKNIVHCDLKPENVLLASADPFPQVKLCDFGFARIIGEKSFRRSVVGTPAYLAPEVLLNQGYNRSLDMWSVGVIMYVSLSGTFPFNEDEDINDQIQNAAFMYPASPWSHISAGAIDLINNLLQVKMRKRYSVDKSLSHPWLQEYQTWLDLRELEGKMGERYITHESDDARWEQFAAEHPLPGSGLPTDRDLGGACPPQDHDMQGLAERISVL
# [5] = biological target: Protein kinase C theta type (Homo sapiens, UniProt Q04759); experiment: Selectivity interaction (KinomeScan (DiscoverX)) EUB0000618a PRKCQ; settings: at 10 µM
# [6] = biological target: T3, Cyclin-dependent kinase 11A (Homo sapiens) (UniProt Q9UQ88); experiment: Selectivity interaction (KinomeScan (DiscoverX)) EUB0000607a CDK11A; settings: at 10 µM
# T3 sequence (whole entry): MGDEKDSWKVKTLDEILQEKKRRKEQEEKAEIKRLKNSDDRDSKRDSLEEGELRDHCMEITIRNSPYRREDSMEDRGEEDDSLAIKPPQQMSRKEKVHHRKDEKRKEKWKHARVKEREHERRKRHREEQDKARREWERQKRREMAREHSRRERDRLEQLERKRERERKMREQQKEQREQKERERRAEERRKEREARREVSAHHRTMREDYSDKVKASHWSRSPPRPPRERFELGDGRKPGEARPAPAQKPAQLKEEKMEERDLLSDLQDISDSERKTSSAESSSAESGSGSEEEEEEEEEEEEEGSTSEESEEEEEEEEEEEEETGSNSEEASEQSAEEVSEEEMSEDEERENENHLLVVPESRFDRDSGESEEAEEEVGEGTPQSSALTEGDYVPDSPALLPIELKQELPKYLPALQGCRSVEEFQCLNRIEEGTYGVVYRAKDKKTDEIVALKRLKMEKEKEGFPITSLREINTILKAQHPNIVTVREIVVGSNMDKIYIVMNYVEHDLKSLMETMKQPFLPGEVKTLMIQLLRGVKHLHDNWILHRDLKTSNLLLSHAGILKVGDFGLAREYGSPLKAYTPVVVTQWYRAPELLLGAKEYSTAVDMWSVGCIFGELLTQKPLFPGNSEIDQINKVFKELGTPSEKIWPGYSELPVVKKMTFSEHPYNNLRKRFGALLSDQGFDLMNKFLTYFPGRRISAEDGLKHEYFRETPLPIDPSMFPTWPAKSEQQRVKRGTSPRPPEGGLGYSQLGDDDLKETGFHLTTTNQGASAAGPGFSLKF
# [7] = biological target: Calcium/calmodulin-dependent protein kinase type 1D (Homo sapiens) (UniProt Q8IU85); experiment: Selectivity interaction (KinomeScan (DiscoverX)) EUB0000607a CAMK1D; settings: at 10 µM
# [8] = biological target: Glycogen synthase kinase-3 alpha (Homo sapiens, UniProt P49840); experiment: Selectivity interaction (Kinase panel (Z-LYTE Assay)) EUB0001632a GSK3A; settings: at 10 µM
# Chain of Glycogen synthase kinase-3 alpha (P49840 2-483 limits assumed): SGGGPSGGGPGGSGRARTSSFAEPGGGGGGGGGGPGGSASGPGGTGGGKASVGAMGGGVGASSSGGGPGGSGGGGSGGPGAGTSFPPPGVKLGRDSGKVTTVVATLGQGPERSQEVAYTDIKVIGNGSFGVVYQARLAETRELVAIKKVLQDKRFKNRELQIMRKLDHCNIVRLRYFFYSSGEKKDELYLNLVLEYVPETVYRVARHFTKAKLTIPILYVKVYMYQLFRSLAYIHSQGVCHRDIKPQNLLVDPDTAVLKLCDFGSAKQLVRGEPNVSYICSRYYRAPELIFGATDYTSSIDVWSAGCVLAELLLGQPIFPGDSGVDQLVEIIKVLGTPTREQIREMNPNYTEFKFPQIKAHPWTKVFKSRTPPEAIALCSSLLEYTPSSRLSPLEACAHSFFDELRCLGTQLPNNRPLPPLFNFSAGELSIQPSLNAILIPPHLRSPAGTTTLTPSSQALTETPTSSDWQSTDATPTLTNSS
# Chain of Protein kinase C theta type (Q04759 whole entry, looked up): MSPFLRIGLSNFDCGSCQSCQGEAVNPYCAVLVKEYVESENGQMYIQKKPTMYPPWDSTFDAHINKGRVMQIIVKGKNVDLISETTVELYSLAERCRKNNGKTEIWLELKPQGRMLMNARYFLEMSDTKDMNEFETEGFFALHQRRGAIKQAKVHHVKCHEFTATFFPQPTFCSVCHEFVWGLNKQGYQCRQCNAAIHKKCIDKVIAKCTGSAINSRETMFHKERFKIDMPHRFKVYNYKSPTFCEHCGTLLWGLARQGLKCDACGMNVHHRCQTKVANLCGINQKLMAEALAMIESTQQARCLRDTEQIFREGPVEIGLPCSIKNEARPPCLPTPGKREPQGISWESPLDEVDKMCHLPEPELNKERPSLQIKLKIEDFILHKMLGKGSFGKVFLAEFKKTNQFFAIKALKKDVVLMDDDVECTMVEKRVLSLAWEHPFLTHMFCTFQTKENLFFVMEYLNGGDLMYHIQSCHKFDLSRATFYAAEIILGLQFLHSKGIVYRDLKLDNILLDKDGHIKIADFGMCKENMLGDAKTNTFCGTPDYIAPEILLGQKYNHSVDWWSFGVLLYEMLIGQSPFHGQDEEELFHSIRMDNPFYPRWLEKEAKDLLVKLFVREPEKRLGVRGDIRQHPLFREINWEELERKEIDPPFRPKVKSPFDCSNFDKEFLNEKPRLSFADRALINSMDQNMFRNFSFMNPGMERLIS
# Chain of Calcium/calmodulin-dependent protein kinase type 1D (Homo sapiens) (Q8IU85 whole entry, looked up): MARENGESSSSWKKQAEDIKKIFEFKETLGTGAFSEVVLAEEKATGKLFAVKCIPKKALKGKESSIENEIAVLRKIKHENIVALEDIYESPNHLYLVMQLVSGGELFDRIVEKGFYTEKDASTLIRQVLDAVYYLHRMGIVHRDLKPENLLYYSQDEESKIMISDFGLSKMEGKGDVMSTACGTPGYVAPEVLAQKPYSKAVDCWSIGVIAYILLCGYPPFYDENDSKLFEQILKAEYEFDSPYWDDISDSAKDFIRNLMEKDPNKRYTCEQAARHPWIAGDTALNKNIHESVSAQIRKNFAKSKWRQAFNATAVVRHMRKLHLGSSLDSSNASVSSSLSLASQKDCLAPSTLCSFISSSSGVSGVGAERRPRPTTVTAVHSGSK
# Chain of LIM domain kinase 1 (Homo sapiens) (P53667 whole entry, looked up, the tested form may be a part): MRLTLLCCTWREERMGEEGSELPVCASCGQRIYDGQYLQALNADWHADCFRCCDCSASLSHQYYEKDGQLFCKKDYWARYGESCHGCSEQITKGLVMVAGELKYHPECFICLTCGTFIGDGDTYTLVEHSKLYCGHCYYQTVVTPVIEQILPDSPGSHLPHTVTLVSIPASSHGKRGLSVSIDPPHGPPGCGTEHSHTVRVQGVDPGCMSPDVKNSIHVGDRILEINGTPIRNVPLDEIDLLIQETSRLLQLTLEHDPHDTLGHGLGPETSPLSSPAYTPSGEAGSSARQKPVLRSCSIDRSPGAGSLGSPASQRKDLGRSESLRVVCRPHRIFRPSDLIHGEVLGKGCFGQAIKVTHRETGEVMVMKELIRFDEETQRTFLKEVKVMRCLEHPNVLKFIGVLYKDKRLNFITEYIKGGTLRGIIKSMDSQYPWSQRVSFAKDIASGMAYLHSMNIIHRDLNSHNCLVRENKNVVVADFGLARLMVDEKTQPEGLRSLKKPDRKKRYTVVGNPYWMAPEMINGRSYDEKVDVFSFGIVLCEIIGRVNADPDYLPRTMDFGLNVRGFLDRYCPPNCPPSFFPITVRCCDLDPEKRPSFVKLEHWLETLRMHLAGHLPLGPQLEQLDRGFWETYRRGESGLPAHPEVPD
# Chain of Sodium-dependent serotonin transporter (P31645 whole entry): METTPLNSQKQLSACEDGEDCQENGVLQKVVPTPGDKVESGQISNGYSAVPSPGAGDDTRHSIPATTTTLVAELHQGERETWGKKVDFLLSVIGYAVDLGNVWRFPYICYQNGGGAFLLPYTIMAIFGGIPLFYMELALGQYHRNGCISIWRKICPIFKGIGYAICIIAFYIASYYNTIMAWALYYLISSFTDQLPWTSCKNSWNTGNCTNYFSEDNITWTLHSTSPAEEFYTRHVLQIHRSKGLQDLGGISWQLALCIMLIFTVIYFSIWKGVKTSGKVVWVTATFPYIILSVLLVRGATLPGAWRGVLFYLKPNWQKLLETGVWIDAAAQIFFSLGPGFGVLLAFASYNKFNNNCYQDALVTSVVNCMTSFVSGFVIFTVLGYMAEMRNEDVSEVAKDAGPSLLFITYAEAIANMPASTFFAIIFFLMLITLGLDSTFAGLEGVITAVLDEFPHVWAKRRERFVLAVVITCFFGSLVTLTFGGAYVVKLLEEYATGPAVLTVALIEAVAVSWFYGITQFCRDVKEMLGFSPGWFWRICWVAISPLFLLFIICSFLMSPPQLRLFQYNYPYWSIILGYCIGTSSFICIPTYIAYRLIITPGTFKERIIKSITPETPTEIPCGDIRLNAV
smiles,measurement,setting,value
O=C(NOC[C@H](O)CO)c1ccc(F)c(F)c1Nc1ccc(I)cc1F,% of control,[1],100%
same,% of control,[2],68%
CCC(=O)N1CC[C@H](Nc2ncnc3c2CN(c2cnc(OC)c(C(F)(F)F)c2)CC3)C1 [LENIOLISIB],IC50,[3],> 30 µM
CCC(=O)N1CCN(c2ccc(-n3c(=O)ccc4cnc5ccc(-c6cnc7ccccc7c6)cc5c43)cc2C(F)(F)F)CC1,% of control,[4],100%
O[C@H]1CC[C@H](Nc2ncc3nc(Nc4c(F)cc(F)cc4F)n([C@H]4CCOC4)c3n2)CC1,% of control,[5],100%
CNC(=O)Nc1ccc(-c2nc(N3CC4CCC(C3)O4)c3cnn(C4CCC5(CC4)OCCO5)c3n2)cc1,% of control,[6],100%
same,% of control,[7],95%
Cn1cc(-n2cnc3c(NCc4nc5cc(Cl)c(Cl)cc5[nH]4)nc(N4CCOCC4)nc32)cn1,% of control,[8],82.2%
